Assay [1] addresses T1, CCR9 (Homo sapiens, UniProt P51686).
T1 sequence (P51686 1-369): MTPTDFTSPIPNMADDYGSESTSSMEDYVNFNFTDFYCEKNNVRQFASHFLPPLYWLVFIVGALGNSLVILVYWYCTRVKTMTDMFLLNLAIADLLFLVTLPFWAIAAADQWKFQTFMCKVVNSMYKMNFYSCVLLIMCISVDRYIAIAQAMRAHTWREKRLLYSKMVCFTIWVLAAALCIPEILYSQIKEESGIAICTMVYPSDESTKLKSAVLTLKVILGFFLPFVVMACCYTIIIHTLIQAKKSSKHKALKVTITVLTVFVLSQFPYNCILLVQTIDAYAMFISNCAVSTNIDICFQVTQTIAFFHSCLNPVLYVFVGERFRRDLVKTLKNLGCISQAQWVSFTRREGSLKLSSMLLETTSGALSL
Put plainly: FLIPR calcium flux assay using MOLT4 cells (TECK stimulation). In kind it is cell-based. Also on record: endogenous in cells; host or cells: MOLT4 (human T-cell line). Particulars: MOLT4 cells (a human T-cell line); Ki determined from IC50 of TECK-induced intracellular calcium increase. As for the experimental part:
Biological Activity: FLIPR Assay Using MOLT4 Cells
A calcium flux assay was used to determine the ability of the compounds to interfere with the binding between CCR9 and its chemokine ligand (TECK) in MOLT4 cells (a human T-cell line). MOLT4 cells were seeded (100,000 cells/well) in coming cell culture plates (Cat #3603) in assay buffer (lx HBSS, 20 mM HEPES) containing 2.5 mM Probenecid. The plate was centrifuged at 1200 rpm for 3 minutes and incubated at 37° C./5% CO2 for 2 hours. A 0.3× Fluo-4 NW calcium dye was prepared in assay buffer containing 5 mM Probenecid and stored in the dark. Each well was loaded with 25 μL of 0.3× Fluo-4 NW calcium dye and incubated at 37 C/5% CO2 for 60 minutes and then at room temperature for 30 minutes. A half-log serially diluted concentration response curve was prepared at a 4× concentration for each (10 μM-0.1 nM final assay concentration) and 25 μL of the compound then transferred to the cells (100 μL final volume) for 60 minutes prior to stimulation (30 minutes at 37° C./5% CO2 and 30 minutes at room temperature). TECK was diluted to 5× its EC50 in assay buffer (containing 0.1% [w/v] bovine serum albumin [BSA]) and 25 μL dispensed through the FLIPR instrument to stimulate the cells (125 μL final volume). The increased in intracellular calcium levels was measured with the FLIPR instrument. The potency of the compound as CCR9 antagonist was calculated as an IC50 using GraphPad Prism software (variable slope four parameter). The Ki of the compound was determined from the IC50 values using the following equation.
(§1) Ki calculation: IC50/1+(Agonist (TECK) conc. used in assay/EC50 of agonist (TECK) generated on day of experiment)

The target of assay [2] is T1, CCR9. The experiment in a line: FLIPR calcium flux assay using hCCR9 over expressed cells (TECK stimulation). The assay is classed as cell-based. On the set-up: expressed in transfected cells; host or cells: Chem-1 cells overexpressing hCCR9. Particulars: Chem1-hCCR9 overexpressing cells; Ki determined from IC50 of TECK-induced intracellular calcium increase. As for the experimental part:
Biological Activity: FLIPR Assay Using hCCR9 Over Expressed Cells
A calcium flux assay was used to determine the ability of the compounds to interfere with the binding between CCR9 and its chemokine ligand (TECK) in Cheml-hCCR9 overexpressing cells. hCCR9 overexpressing cells were seeded (25,000 cells/well) into black Poly-D-Lysine coated clear bottom 96-well plates (BD Biosciences, Cat #356640) and incubated overnight at 37° C./5% CO2 in a humidified incubator. Media was aspirated and cells washed twice with 100 μL assay buffer (1×HBSS, 20 mM HEPES) containing 2.5 mM Probenecid. A 0.3× Fluo-4 NW calcium dye was prepared in assay buffer containing 5 mM Probenecid and stored in the dark. Each well was loaded with 100 μL of 0.3× Fluo-4 NW calcium dye and incubated at 37° C./5% CO2 for 60 minutes and then at room temperature for 30 minutes. A half-log serially diluted concentration response curve was prepared at a 3× final assay concentration for each compound (10 μM−0.1 nM final assay concentration) and 50 μL of the compound then transferred to the cells (150 μL final volume) for 60 minutes prior to stimulation (30 minutes at 37° C./5% CO2 and 30 minutes at room temperature). TECK was diluted to 4× its ECso in assay buffer (containing 0.1% [w/v] bovine serum albumin[BSA]) and 50 μL dispensed through the fluorometric imaging plate reader (FLIPR) instrument to stimulate the cells (200 μL final volume). The increase in intracellular calcium levels was measured with the FLIPR instrument. The potency of the compound as a CCR9 antagonist was calculated as an IC50 using GraphPad Prism software (variable slope four parameter). The Ki of the compound was determined from the IC50 values using the following equation.
as §1
(Calcium flux is commonly read through the fluorescence of an indicator in the cells.)

Structures are written as SMILES.

What is called Ki is a dissociation constant, usually derived from enzyme kinetics or from competition with a known ligand.

With `Cc1cc(-c2cc3c(C#N)ccc(NS(=O)(=O)c4ccc(C(C)(C)C)cc4)n3n2)n(C)n1` [Compound 158], the values for the inhibition constant (Ki) at CCR9 [1] and at CCR9 [2] were 48 nM and 186 nM, respectively.
On the same counts, the results for `Cn1ccc(-c2cc3c(C#N)ccc(NS(=O)(=O)c4ccc(C(C)(C)C)cc4)n3n2)c1` [Compound 159] are 96 nM and 136 nM.
As to `COc1cncc(-c2cc3c(C#N)ccc(NS(=O)(=O)c4ccc(C(C)(C)C)cc4)n3n2)c1` [Compound 161], the Ki is 62 nM at CCR9 [1] and 127 nM at CCR9 [2].
In the case of `CC(C)(C)c1ccc(S(=O)(=O)Nc2ccc(C#N)c3cc(-c4cn[nH]c4)nn23)cc1` [Compound 164, 4-(tert-butyl)-N-(4-cyano-2-(1H-pyrazol-4-yl)pyrazolo[1,5-a]pyridin-7-yl)benzenesulfonamide], the inhibition constant Ki at CCR9 [1] was 34 nM; at CCR9 [2], 112 nM.
On the same counts, the results for `CC(C)(C)c1ccc(S(=O)(=O)Nc2ccc(Cl)c3cc(-c4cnco4)nn23)cc1` [Compound 169, 4-(tert-butyl)-N-(4-chloro-2-(oxazol-5-yl)pyrazolo[1,5-a]pyridin-7-yl)benzenesulfonamide] are 164 nM and 343 nM.
On the same counts, the results for `CC(C)(C)c1ccc(S(=O)(=O)Nc2ccc(Cl)c3cc(-c4ccsc4C(=O)O)nn23)cc1` [Compound 172, 3-(7-((4-(tert-butyl)phenyl)sulfonamido)-4-chloropyrazolo[1,5-a]pyridin-2-yl)thiophene-2-carboxylic acid] are 79 nM and 129 nM.
On the same counts, the results for `CC(C)(C)c1ccc(S(=O)(=O)Nc2c(C#N)ccc3cc(-c4cccnc4)nn23)cc1` [Compound 180, 4-(tert-butyl)-N-(6-cyano-2-(pyridin-3-yl)pyrazolo[1,5-a]pyridin-7-yl)benzenesulfonamide] are 30 nM and 133 nM.
On to `Cn1cnc(-c2cc3c(Cl)ccc(NS(=O)(=O)c4ccc(C(C)(C)C)cc4)n3n2)c1` [Compound 182], for which the Ki at CCR9 [1] was 80 nM; on CCR9 [2], 168 nM.
For `Cn1ccc(-c2cc3c(Cl)ccc(NS(=O)(=O)c4ccc(C(C)(C)C)cc4)n3n2)n1` [Compound 183], in that order: 95 nM and 94 nM.
For `Cn1ccc(-c2cc3c(C#N)ccc(NS(=O)(=O)c4ccc(C(C)(C)C)cc4)n3n2)n1` [Compound 184], the values for the inhibition constant (Ki) on CCR9 [1] and on CCR9 [2] were 22 nM and 17 nM, respectively.
Regarding `CC(C)n1cc(-c2cc3c(Cl)ccc(NS(=O)(=O)c4ccc(C(C)(C)C)cc4)n3n2)cn1` [Compound 186], the values for the inhibition constant (Ki) at CCR9 [1] and on CCR9 [2] were 31 nM and 67 nM, respectively.
For `CCn1cc(-c2cc3c(C#N)ccc(NS(=O)(=O)c4ccc(C(C)(C)C)cc4)n3n2)cn1` [Compound 189], in that order: 10 nM and 22 nM.
On the same counts, the results for `Cc1c(-c2cc3c(C#N)ccc(NS(=O)(=O)c4ccc(C(C)(C)C)cc4)n3n2)cnn1C` [Compound 190] are 54 nM and 114 nM.
For `CC(C)n1cc(-c2cc3c(C#N)ccc(NS(=O)(=O)c4ccc(C(C)(C)C)cc4)n3n2)cn1` [Compound 191], in that order: 19 nM and 9 nM.
Regarding `Cn1nnc(-c2cc3c(Cl)ccc(NS(=O)(=O)c4ccc(C(C)(C)C)cc4)n3n2)n1` [Compound 192], the Ki at CCR9 [1] turned out to be 161 nM; on CCR9 [2] it was 183 nM.
On the same counts, the results for `COc1ccc(-c2cc3c(C#N)ccc(NS(=O)(=O)c4ccc(C(C)(C)C)cc4)n3n2)cn1` [Compound 198] are 26 nM and 54 nM.
On to `Cc1cncc(-c2cc3c(Cl)ccc(NS(=O)(=O)c4ccc(C(C)(C)C)cc4)n3n2)c1` [Compound 199], for which the Ki on CCR9 [1] was 105 nM; at CCR9 [2], 63 nM.
On the same counts, the results for `Cc1cncc(-c2cc3c(C#N)ccc(NS(=O)(=O)c4ccc(C(C)(C)C)cc4)n3n2)c1` [Compound 200] are 20 nM and 12 nM.
On the same counts, the results for `COc1ncccc1-c1cc2c(C#N)ccc(NS(=O)(=O)c3ccc(C(C)(C)C)cc3)n2n1` [Compound 202] are 107 nM and 127 nM.
For `Cc1ncccc1-c1cc2c(Cl)ccc(NS(=O)(=O)c3ccc(C(C)(C)C)cc3)n2n1` [Compound 203], in that order: 85 nM and 149 nM.
Take `Cc1ncccc1-c1cc2c(C#N)ccc(NS(=O)(=O)c3ccc(C(C)(C)C)cc3)n2n1` [Compound 204]: the Ki at CCR9 [1] was found to be 37 nM; at CCR9 [2] it was 121 nM.
Consider `Cc1ccc(-c2cc3c(C#N)ccc(NS(=O)(=O)c4ccc(C(C)(C)C)cc4)n3n2)cn1` [Compound 206], for which the values for the Ki on CCR9 [1] and at CCR9 [2] were 64 nM and 128 nM, respectively.

(Values after US20170002011A1, “BENZENE SULFONAMIDES AS CCR9 INHIBITORS” (NORGINE B.V., priority 2013, published 2017).)
